Assay results taken from patent US11459312B2, “Sulphur substituted 3-oxo-2,3-dihydropyridazine-4-carboxamides” (Bayer Aktiengesellschaft, priority 2017, dated 2022).

Target: T1, AHR (Homo sapiens, UniProt P35869)
T1 sequence (P35869 11-848): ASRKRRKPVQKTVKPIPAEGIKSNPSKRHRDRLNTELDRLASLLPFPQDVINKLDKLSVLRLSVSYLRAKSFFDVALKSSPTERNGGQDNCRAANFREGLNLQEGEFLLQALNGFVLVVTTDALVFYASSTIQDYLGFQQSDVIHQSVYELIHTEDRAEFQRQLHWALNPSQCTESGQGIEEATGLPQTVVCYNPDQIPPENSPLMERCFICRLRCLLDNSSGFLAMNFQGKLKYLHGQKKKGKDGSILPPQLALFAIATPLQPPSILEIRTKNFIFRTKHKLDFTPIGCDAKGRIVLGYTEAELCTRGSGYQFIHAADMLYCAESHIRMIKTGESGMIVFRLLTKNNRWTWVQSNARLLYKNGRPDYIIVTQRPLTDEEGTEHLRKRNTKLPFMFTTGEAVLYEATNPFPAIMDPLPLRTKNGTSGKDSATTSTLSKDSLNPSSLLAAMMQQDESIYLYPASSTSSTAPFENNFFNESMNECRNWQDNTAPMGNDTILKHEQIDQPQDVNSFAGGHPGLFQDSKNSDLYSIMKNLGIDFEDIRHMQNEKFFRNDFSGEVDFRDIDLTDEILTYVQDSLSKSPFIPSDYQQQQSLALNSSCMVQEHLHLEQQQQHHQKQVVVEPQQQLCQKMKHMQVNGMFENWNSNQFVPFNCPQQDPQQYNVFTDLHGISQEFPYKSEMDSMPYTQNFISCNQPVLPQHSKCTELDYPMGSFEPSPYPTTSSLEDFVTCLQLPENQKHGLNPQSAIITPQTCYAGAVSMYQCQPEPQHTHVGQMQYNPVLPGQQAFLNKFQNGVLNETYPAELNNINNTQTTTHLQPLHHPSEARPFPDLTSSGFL
Assay: In vitro assay 1: AHR-luc transactivation assay, antagonism in human cell line (U87 glioblastoma cells, kynurenic acid prestimulated)
Assay type: cell-based
Design: U87 glioblastoma cells (ATCC) endogenously expressing AHR; host or cells: U87 glioblastoma cells, stably transfected with DRE-firefly luciferase and renilla reporter constructs only
Details: firefly luciferase DRE reporter, 150 μM kynurenic acid, 20 hours, read-out: Assay 1: AHR-luc Hum Antagonism IC50
Procedure: Transactivation Assay in Human Cell Line (In Vitro Assays 1 and 2)
Transactivation assays were carried out in U87 glioblastoma cells (ATCC) endogenously expressing AHR. In addition the cells were stably transfected with an AHR inducible firefly luciferase reporter gene construct that carried AHR-binding sites (DRE) in its promoter and a renilla reporter gene construct with constitutively active promoter. Kynurenic acid is an endogenous AHR activating ligand and was used to prestimulate test cells prior to testing the antagonistic properties of compounds.
In Vitro Assay 1: Antagonism in Human Cell Line
Cells in medium (tryptophan free RPMI, 1% FCS, 2 mM Glutamine) supplemented with 150 μM kynurenic acid were grown for 20 hours in absence (negative control) or presence of increasing concentrations of test compounds (typical dilutions: […], 0.25 nmol/L, 0.89 nmol/L; 3.1 nmol/L, 11 nmol/L, 38 nmol/L, 130 nmol/L, 470 nmol/L, 1.6 μmol/L, 5.7 μmol/L and 20 μmol/L in duplicates). As positive inhibition control cells supplemented with 150 μM kynurenic acid were incubated in presence of 5 μM Staurosporin. Normalization was done by positive and negative controls.
Firefly luciferase and Renilla activity was determined by the DualGlo Luciferase Assay System (Promega, #2920). Renilla activity was used to assess toxic effects of compounds.

Row | SMILES | IC50 [nM]
1 | O=C(N[C@@H]1C[S+]([O-])C[C@@H]1O)c1cc(-c2ccc(Cl)cc2)nn(-c2cccc(F)c2)c1=O (single isomer, unassigned) [Example 29, 6-(4-chlorophenyl)-2-(3-fluorophenyl)-N-[(cis)-4-hydroxy-1-oxidotetrahydro-thiophen-3-yl]-3-oxo-2,3-dihydropyridazine-4-carboxamide] | 301
2 | C[C@@H](CS(C)(=N)=O)NC(=O)c1cc(-c2ccc(Cl)cc2)nn(-c2cccc(F)c2)c1=O (single isomer, unassigned) [Example 8] | 140
3 | CS(=N)(=O)CCNC(=O)c1cc(-c2ccc(Cl)cc2)nn(-c2cccc(F)c2)c1=O (single isomer, unassigned) [Example 54, 6-(4-Chlorophenyl)-2-(3-fluorophenyl)-N-[2-(S-methylsulfonimidoyl)ethyl]-3-oxo-2,3-dihydropyridazine-4-carboxamide] | 581
4 | C[C@@H](C[S+](C)[O-])NC(=O)c1cc(-c2ccc(Cl)cc2)nn(-c2cccc(F)c2)c1=O (single isomer, unassigned) [Example 4] | 40.2
5 | O=C(N[C@@H]1C[S+]([O-])C[C@@H]1O)c1cc(-c2ccc(C(F)(F)F)cc2)nn(-c2cccnc2)c1=O (single isomer, unassigned) [Example 37, N-[(cis)-4-hydroxy-1-oxidotetrahydro-thiophen-3-yl]-3-oxo-2-(pyridin-3-yl)-6-[4-(trifluoromethyl)phenyl]-2,3-dihydropyridazine-4-carboxamide] | 150
6 | CSC[C@H](C)NC(=O)c1cc(-c2ccc(Cl)cc2)nn(-c2cccc(F)c2)c1=O [Example 1, 6-(4-Chlorophenyl)-2-(3-fluorophenyl)-N-[(2S)-1-(methylsulfanyl)propan-2-yl]-3-oxo-2,3-dihydropyridazine-4-carboxamide] | 52.6
7 | O=C(N[C@@H]1C[S+]([O-])C[C@@H]1O)c1cc(-c2ccc(C(F)(F)F)cc2)nn(-c2cccnc2)c1=O (relative stereo) [Example 33, N-[(cis)-4-hydroxy-1-oxidotetrahydro-thiophen-3-yl]-3-oxo-2-(pyridin-3-yl)-6-[4-(trifluoromethyl)phenyl]-2,3-dihydropyridazine-4-carboxamide] | 139
8 | N=S1(=O)C[C@H](O)[C@H](NC(=O)c2cc(-c3ccc(Cl)cc3)nn(-c3cccc(F)c3)c2=O)C1 (stereo partly drawn) [Example 44, 6-(4-chlorophenyl)-2-(3-fluorophenyl)-N-[(cis)-4-hydroxy-1-imino-1-oxidotetrahydro-1H-1lambda4-thiophen-3-yl]-3-oxo-2,3-dihydropyridazine-4-carboxamide] | 99.3
9 | CS(=N)(=O)CCNC(=O)c1cc(-c2ccc(Cl)cc2)nn(-c2cccc(F)c2)c1=O (single isomer, unassigned) [Example 53, 6-(4-Chlorophenyl)-2-(3-fluorophenyl)-N-[2-(S-methylsulfonimidoyl)ethyl]-3-oxo-2,3-dihydropyridazine-4-carboxamide] | 843
10 | C[C@@H](CS(C)(=O)=O)NC(=O)c1cc(-c2ccc(Cl)cc2)nn(-c2cccc(F)c2)c1=O [Example 2, 6-(4-Chlorophenyl)-2-(3-fluorophenyl)-N-[(2S)-1-(methylsulfonyl)propan-2-yl]-3-oxo-2,3-dihydropyridazine-4-carboxamide] | 147
11 | C[C@@H](CS(C)(=N)=O)NC(=O)c1cc(-c2ccc(Cl)cc2)nn(-c2cccc(F)c2)c1=O (single isomer, unassigned) [Example 7] | 241
12 | O=C(N[C@@H]1C[S+]([O-])C[C@@H]1O)c1cc(-c2ccc(Cl)cc2)nn(-c2cccc(F)c2)c1=O (single isomer, unassigned; (-)) [Example 30, (−)-6-(4-chlorophenyl)-2-(3-fluorophenyl)-N-[(cis)-4-hydroxy-1-oxidotetrahydro-thiophen-3-yl]-3-oxo-2,3-dihydropyridazine-4-carboxamide] | 210
13 | O=C(N[C@@H]1C[S+]([O-])C[C@@H]1O)c1cc(-c2ccc(Cl)cc2)nn(-c2cccc(F)c2)c1=O (single isomer, unassigned; (+)) [Example 27, (+)-6-(4-chlorophenyl)-2-(3-fluorophenyl)-N-[(cis)-4-hydroxy-1-oxidotetrahydro-thiophen-3-yl]-3-oxo-2,3-dihydropyridazine-4-carboxamide] | 93.5
14 | C[C@@H](C[S+](C)[O-])NC(=O)c1cc(-c2ccc(C(F)(F)F)cc2)nn(-c2cnn(C)c2)c1=O (single isomer, unassigned) [Example 25] | 41.4

Results, then the compound that gave them:

Row | IC50 [nM] | SMILES
15 | 26.4 | C[C@@H](C[S+](C)[O-])NC(=O)c1cc(-c2ccc(Cl)cc2)nn(-c2cnn(C)c2)c1=O (stereo partly drawn) [Example 49, 6-(4-Chlorophenyl)-2-(1-methyl-1H-pyrazol-4-yl)-N-[(2S)-1-(methylsulfinyl)propan-2-yl]-3-oxo-2,3-dihydropyridazine-4-carboxamide]
16 | 5.37 | C[C@@H](C[S+](C)[O-])NC(=O)c1cc(-c2ccc(C(F)(F)F)cc2)nn(-c2cnn(C)c2)c1=O (mixture of isomers) [Example 23, 2-(1-Methyl-1H-pyrazol-4-yl)-N-[(2S)-1-(methylsulfinyl)propan-2-yl]-3-oxo-6-[4-(trifluoromethyl)phenyl]-2,3-dihydropyridazine-4-carboxamide]
17 | 39.2 | C[C@@H](CS(C)(=O)=NC(=O)C(F)(F)F)NC(=O)c1cc(-c2ccc(C(F)(F)F)cc2)nn(-c2cnn(C)c2)c1=O (stereo partly drawn) [Example 41, 2-(1-Methyl-1H-pyrazol-4-yl)-N-{(2S)-1-[S-methyl-N-(trifluoroacetyl)sulfonimidoyl]propan-2-yl}-3-oxo-6-[4-(trifluoromethyl)phenyl]-2,3-dihydropyridazine-4-carboxamide]
18 | 6.45 | O=C(N[C@@H]1CS(=O)(=O)C[C@@H]1O)c1cc(-c2ccc(C(F)(F)F)cc2)nn(-c2cccc(F)c2)c1=O (single isomer, unassigned) [Example 14, (+)-2-(3-fluorophenyl)-N-[(cis)-4-hydroxy-1,1-dioxidotetrahydro-thiophen-3-yl]-3-oxo-6-[4-(trifluoromethyl)phenyl]-2,3-dihydropyridazine-4-carboxamide]
19 | 13.4 | O=C(N[C@@H]1C[S+]([O-])C[C@@H]1O)c1cc(-c2ccc(Cl)cc2)nn(-c2cccc(F)c2)c1=O (single isomer, unassigned; (-)) [Example 28, (−)-6-(4-chlorophenyl)-2-(3-fluorophenyl)-N-[(cis)-4-hydroxy-1-oxidotetrahydro-thiophen-3-yl]-3-oxo-2,3-dihydropyridazine-4-carboxamide]
20 | 3.46 | O=C(N[C@@H]1CS(=O)(=O)C[C@@H]1O)c1cc(-c2ccc(C(F)(F)F)cc2)nn(-c2cnsc2)c1=O (single isomer, unassigned) [Example 11, (−)-N-[(cis)-4-hydroxy-1,1-dioxidotetrahydro-thiophen-3-yl]-3-oxo-2-(1,2-thiazol-4-yl)-6-[4-(trifluoromethyl)phenyl]-2,3-dihydropyridazine-4-carboxamide]
21 | 1.11 | O=C(N[C@@H]1CS(=O)(=O)C[C@@H]1O)c1cc(-c2ccc(C(F)(F)F)cc2)nn(-c2cnsc2)c1=O (single isomer, unassigned) [Example 12, (+)-N-[(cis)-4-hydroxy-1,1-dioxidotetra-hydrothiophen-3-yl]-3-oxo-2-(1,2-thiazol-4-yl)-6-[4-(trifluoromethyl)phenyl]-2,3-dihydropyridazine-4-carboxamide]
22 | 33.3 | O=C(N[C@@H]1C[S+]([O-])C[C@@H]1O)c1cc(-c2ccc(Cl)cc2)nn(-c2cccc(F)c2)c1=O (single isomer, unassigned) [Example 26, 6-(4-chlorophenyl)-2-(3-fluorophenyl)-N-[(cis)-4-hydroxy-1-oxidotetrahydro-thiophen-3-yl]-3-oxo-2,3-dihydropyridazine-4-carboxamide]
23 | 38.2 | O=C(N[C@@H]1CS(=O)(=O)C[C@@H]1O)c1cc(-c2ccc(C(F)(F)F)cc2)nn(-c2cccnc2)c1=O (single isomer, unassigned) [Example 18]
